According to PubChem BioAssay (NCI):
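Tested at 5 concentrations; 48 h exposure; 96-well plates; endpoints linearly interpolated, else capped at highest concentration. Here, GI50 denotes the concentration required for 50% inhibition of growth. TGI: concentration producing complete growth inhibition.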 Where a SMILES comes first, the peptide text is derived from it. [ ]: non-standard residue; d: D form. The star is where a group is joined. NMeF = CN[CH](Cc1ccccc1)C(=O)O; NMeV = CN[CH](C(=O)O)C(C)C; Boc = CC(C)(C)OC(=O)*

Tests used:
Assay in all cases: NCI anticancer screen, dose series, 48 h
A549 NSCLC = test system: A549 NSCLC
CCRF-CEM leukemia = test system: CCRF-CEM leukemia
COLO 205 colon = test system: COLO 205 colon
HCT-15 colon = test system: HCT-15 colon
HOP-62 NSCLC = test system: HOP-62 NSCLC
IGROV1 ovarian = test system: IGROV1 ovarian
MOLT-4 leukemia = test system: MOLT-4 leukemia
SF-539 CNS = test system: SF-539 CNS
HOP-92 NSCLC = test system: HOP-92 NSCLC
NCI-H226 lung = test system: NCI-H226 lung

Compound | TGI (A549 NSCLC) | TGI (CCRF-CEM leukemia) | TGI (COLO 205 colon) | TGI (HCT-15 colon) | TGI (HOP-62 NSCLC) | TGI (IGROV1 ovarian) | TGI (MOLT-4 leukemia) | TGI (SF-539 CNS) | TGI (HOP-92 NSCLC) | TGI (NCI-H226 lung) | GI50 (A549 NSCLC) | GI50 (CCRF-CEM leukemia) | GI50 (COLO 205 colon) | GI50 (HCT-15 colon) | GI50 (HOP-62 NSCLC) | GI50 (HOP-92 NSCLC) | GI50 (IGROV1 ovarian) | GI50 (MOLT-4 leukemia) | GI50 (NCI-H226 lung) | GI50 (SF-539 CNS)
Cc1cc(Cl)ccc1N=C1NC(=O)C(CC(=O)Nc2ccc([N+](=O)[O-])cc2[N+](=O)[O-])S1 (stereo unspecified) | 85.9 µM | > 100 µM | > 100 µM | > 100 µM | 85 µM | > 100 µM | 55.5 µM | 59.1 µM | – | – | – | – | – | – | – | – | – | – | – | –
O=C1CCN2C(=O)CCN12 | > 100 µM | > 100 µM | > 100 µM | – | > 100 µM | – | > 100 µM | – | > 100 µM | > 100 µM | – | – | – | – | – | – | – | – | – | –
O=C(Cc1ccccc1)NN1C(=O)C(Cl)C1c1cc(Br)ccc1O (stereo unspecified) | > 100 µM | > 100 µM | > 100 µM | > 100 µM | 52.9 µM | > 100 µM | 8.07 µM | – | – | 69.7 µM | – | – | – | – | – | – | – | – | – | –
Cn1c(=O)c(C(c2ccc([N+](=O)[O-])cc2)c2c(O)c3ccccc3n(C)c2=O)cc2ccccc21 (stereo unspecified) | > 100 µM | – | > 100 µM | > 100 µM | 75.2 µM | > 100 µM | > 100 µM | > 100 µM | > 100 µM | 64 µM | – | – | – | – | – | – | – | – | – | –
CC1CC[C@]2(C(=O)O)CCC3(C)C(=CC(=O)C4[C@@]5(C)CCC(=O)C(C)(C)C5CC[C@]43C)[C@@H]2[C@H]1C (stereo partly specified) | > 100 µM | 58.9 µM | 33.7 µM | – | 46.3 µM | > 100 µM | 32.2 µM | 44.1 µM | 73.2 µM | 92.6 µM | – | – | – | – | – | – | – | – | – | –
COc1cc(C(C)O)c[n+](CCc2c[nH]c3ccccc23)c1 (stereo unspecified) | > 100 µM | > 100 µM | > 100 µM | > 100 µM | > 100 µM | > 100 µM | > 100 µM | > 100 µM | – | – | – | – | – | – | – | – | – | – | – | –
CC(C)C(NC(=O)OC(C)(C)C)C(=O)N(C)C(Cc1ccccc1)C(=O)N(C)C(C(=O)O)C(C)C (stereo not drawn) (Boc-Val-[NMeF]-[NMeV]-OH; configuration not given here) | > 100 µM | > 100 µM | > 100 µM | > 100 µM | > 100 µM | > 100 µM | > 100 µM | > 100 µM | – | > 100 µM | – | – | – | – | – | – | – | – | – | –
CCOc1ccccc1N=Nc1ccc2oc(=O)c(C(=O)Nc3cccc(C)c3)cc2c1 | > 100 µM | 83.8 µM | 71.8 µM | > 100 µM | > 100 µM | > 100 µM | 80.2 µM | 91.1 µM | – | – | – | – | – | – | – | – | – | – | – | –
COc1ccc(-c2n[nH]nc2-c2cc(OC)c(OC)c(OC)c2)cc1 | 38.3 µM | > 40.8 µM | 0.132 µM | > 100 µM | > 73.2 µM | 9.23 µM | – | – | 30.6 µM | 82.7 µM | < 0.01 µM | < 0.01 µM | 0.0358 µM | < 0.01 µM | < 0.01 µM | < 0.0195 µM | < 0.01 µM | 0.0185 µM | < 0.0225 µM | –
Cc1cccc(NC(=O)/C(=N\NC(C)(C)C)C2NC(=S)NC2=O)c1C (stereo unspecified) | > 100 µM | > 100 µM | > 100 µM | > 100 µM | > 100 µM | > 100 µM | > 100 µM | > 100 µM | – | – | – | – | – | – | – | – | – | – | – | –
COc1ccc(/C=C/c2ccnc3ccccc23)c(OC)c1 | > 10 µM | > 10 µM | > 10 µM | > 10 µM | > 10 µM | > 10 µM | > 10 µM | > 10 µM | – | > 10 µM | – | – | – | – | – | – | – | – | – | –
C=C1C(=O)O[C@H]2[C@H]1CC/C(COC(=O)C(=O)c1cn(Cc3ccccc3)c3ccccc13)=C\CC[C@@]1(C)O[C@@H]21 | 6.35 µM | 9.02 µM | 4.46 µM | 3.69 µM | 5.51 µM | 3.84 µM | 6.83 µM | 3.83 µM | 4.38 µM | – | 2.13 µM | 1.27 µM | 2.08 µM | 1.45 µM | 2.03 µM | 1.88 µM | 1.92 µM | 2.35 µM | – | 1.9 µM
C[C@@]12CC=C3c4nc(Nc5cccc(O)c5)sc4CC[C@]3(C)[C@H]1CC[C@]1(C)C(=O)CC[C@@H]21 | > 100 µM | > 100 µM | 4.38 µM | 3.33 µM | 8.12 µM | 6.04 µM | – | 1.52 µM | 5.32 µM | 8.94 µM | 4.6 µM | 1.83 µM | 2.17 µM | 1.38 µM | 2.75 µM | 1.93 µM | 2.23 µM | – | 2.86 µM | 0.387 µM
COc1cc(/C=C/c2cc(/C=C/c3ccc(O)c(OC)c3)n(C(=O)Nc3ccc(F)c(Cl)c3)n2)ccc1O | 3.47 µM | > 100 µM | 3.25 µM | 3.34 µM | 1.59 µM | 3.59 µM | 1.4 µM | – | 5.89 µM | 2.3 µM | 0.387 µM | 0.131 µM | 1.76 µM | 0.25 µM | 0.409 µM | 1.03 µM | 0.47 µM | 0.282 µM | 0.491 µM | –
Cc1cc(S(=O)(=O)Nc2nnc(-c3ccccc3)c(-c3ccccc3)n2)c(SCC(N)=O)cc1Cl | > 100 µM | 77.4 µM | > 100 µM | > 100 µM | > 100 µM | > 100 µM | 49.2 µM | 30.1 µM | – | > 100 µM | > 100 µM | 29.3 µM | > 100 µM | > 100 µM | 52.5 µM | – | > 100 µM | 24.4 µM | 59.9 µM | 0.671 µM
Cc1ccn2c(c1)nc1nc3ccccc3nc12 | > 100 µM | > 100 µM | > 100 µM | > 100 µM | > 100 µM | > 100 µM | – | > 100 µM | > 100 µM | > 100 µM | – | – | – | – | – | – | – | – | – | –
COc1cc2ncnc(Nc3ccc(C)c(O)c3)c2cc1OC | > 25 µM | > 25 µM | > 25 µM | > 25 µM | > 25 µM | > 12 µM | > 25 µM | > 23 µM | – | > 25 µM | 18.1 µM | > 25 µM | > 25 µM | 14.1 µM | > 25 µM | – | 1.98 µM | > 25 µM | 20.5 µM | 5.98 µM
Clc1nc(Cl)c(Cl)c(-c2ccccc2)n1 | 27.9 µM | – | – | > 100 µM | 18.1 µM | 31.1 µM | 3.99 µM | 31.5 µM | – | 65.4 µM | – | – | – | – | – | – | – | – | – | –
